# Measured values as given in patent US8686150B2 (Sanofi, priority 2011, dated 2014).
# Biological target: T1, human full-length recombinant PKC βII (Homo sapiens, UniProt P05771)
# T1 construct: Active human full-length recombinant PKC βII; purchased Invitrogen GmbH, Darmstadt, Germany
# Assay: Determination of PKC βII inhibition (Caliper mobility-shift kinase assay, Fluorescein-RFARKGSLRQKNV peptide substrate)
# Format: biochemical
# Details: example compounds at a final concentration of 1.14 μM (±0.15 μM)
# Method in brief: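 Compounds were tested at 1.14 μM final. Enzyme was activated by PS, DAG and CaCl2 in Hepes pH 7.4 with MgCl2, with substrate 3 μM and ATP 120 μM as pre-mix concentrations. After 60 min at 32 °C and an EDTA stop, Caliper separation gave fractional turnover, which was normalised to no-compound and no-enzyme controls.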
# T1 sequence (P05771 1-673 isoform P05771-2): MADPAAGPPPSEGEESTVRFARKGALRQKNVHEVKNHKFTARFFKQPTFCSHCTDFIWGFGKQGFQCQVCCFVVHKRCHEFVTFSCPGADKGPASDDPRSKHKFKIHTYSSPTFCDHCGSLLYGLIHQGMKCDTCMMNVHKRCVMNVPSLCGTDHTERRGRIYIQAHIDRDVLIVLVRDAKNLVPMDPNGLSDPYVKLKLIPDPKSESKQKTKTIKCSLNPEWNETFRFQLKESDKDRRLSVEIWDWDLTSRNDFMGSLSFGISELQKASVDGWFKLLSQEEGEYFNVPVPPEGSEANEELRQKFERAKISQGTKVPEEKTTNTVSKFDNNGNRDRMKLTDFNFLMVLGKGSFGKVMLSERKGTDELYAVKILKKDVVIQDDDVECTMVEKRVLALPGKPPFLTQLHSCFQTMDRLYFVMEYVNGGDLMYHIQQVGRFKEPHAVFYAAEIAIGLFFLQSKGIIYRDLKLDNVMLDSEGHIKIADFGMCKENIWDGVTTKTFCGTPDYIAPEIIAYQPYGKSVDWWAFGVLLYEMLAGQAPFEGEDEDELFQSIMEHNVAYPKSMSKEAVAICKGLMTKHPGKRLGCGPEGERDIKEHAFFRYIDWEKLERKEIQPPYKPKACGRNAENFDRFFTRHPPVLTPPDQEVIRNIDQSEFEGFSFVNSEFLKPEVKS
row,SMILES,inhibition at 1.14 µM
1,"Cc1n[nH]c2nc(-c3ccc(O)cc3)cc(C(=O)N3CCCC4(CCNC4)C3)c12 (centres unmarked) [Example 263, (2,7-Diaza-spiro[4.5]dec-7-yl)-[6-(4-hydroxy-phenyl)-3-methyl-1H-pyrazolo[3,4-b]pyridin-4-yl]-methanone]",65%
2,"Cc1n[nH]c2nc(-c3ccc(O)cc3)cc(C(=O)N3CCC(N)C3)c12 (centres unmarked) [Example 264, (3-Amino-pyrrolidin-1-yl)-[6-(4-hydroxy-phenyl)-3-methyl-1H-pyrazolo[3,4-b]pyridin-4-yl]-methanone]",88%
3,"CC(=O)N1CCN(C(=O)c2cc(-c3ccc(O)cc3)nc3[nH]nc(C)c23)CC1 [Example 265, 1-{4-[6-(4-Hydroxy-phenyl)-3-methyl-1H-pyrazolo[3,4-b]pyridine-4-carbonyl]-piperazin-1-yl}-ethanone]",87%
4,"Cc1n[nH]c2nc(-c3ccc(O)cc3)cc(C(=O)N3CC(=O)N4CCCCC4C3)c12 (centres unmarked) [Example 266, 2-[6-(4-Hydroxy-phenyl)-3-methyl-1H-pyrazolo[3,4-b]pyridine-4-carbonyl]-octahydro-pyrido[1,2-a]pyrazin-4-one]",39%
5,"Cc1ccc(C(=O)N2CCN(C(=O)c3cc(-c4ccc(O)cc4)nc4[nH]nc(C)c34)CC2)cc1 [Example 267, [6-(4-Hydroxy-phenyl)-3-methyl-1H-pyrazolo[3,4-b]pyridin-4-yl]-[4-(4-methyl-benzoyl)-piperazin-1-yl]-methanone]",32%
6,"CCN1CC2CC1CN2C(=O)c1cc(-c2ccc(O)cc2)nc2[nH]nc(C)c12 (centres unmarked) [Example 268, (5-Ethyl-2,5-diaza-bicyclo[2.2.1]hept-2-yl)-[6-(4-hydroxy-phenyl)-3-methyl-1H-pyrazolo[3,4-b]pyridin-4-yl]-methanone]",80%
7,"Cc1n[nH]c2nc(-c3ccc(O)cc3)cc(C(=O)N3CCN(CCS(C)(=O)=O)CC3)c12 [Example 271, [6-(4-Hydroxy-phenyl)-3-methyl-1H-pyrazolo[3,4-b]pyridin-4-yl]-[4-(2-methanesulfonyl-ethyl)-piperazin-1-yl]-methanone]",66%
8,"CCN1CCCC(NC(=O)c2cc(-c3ccc(O)cc3)nc3[nH]nc(C)c23)C1 (centres unmarked) [Example 273, 6-(4-Hydroxy-phenyl)-3-methyl-1H-pyrazolo[3,4-b]pyridine-4-carboxylic acid (1-ethyl-piperidin-3-yl)-amide]",83%
9,"Cc1n[nH]c2nc(-c3ccc(O)cc3)cc(C(=O)N3C[C@]4(C)CN(C)C[C@](C)(C3)C4O)c12 (stereo partly drawn) [Example 274, [6-(4-Hydroxy-phenyl)-3-methyl-1H-pyrazolo[3,4-b]pyridin-4-yl]-((1S,5R)-9-hydroxy-1,5,7-trimethyl-3,7-diaza-bicyclo[3.3.1]non-3-yl)-methanone]",88%
10,"Cc1n[nH]c2nc(-c3ccc(O)cc3)cc(C(=O)NC3CC(C)(C)N(C)C(C)(C)C3)c12 [Example 276, 6-(4-Hydroxy-phenyl)-3-methyl-1H-pyrazolo[3,4-b]pyridine-4-carboxylic acid (1,2,2,6,6-pentamethyl-piperidin-4-yl)-amide]",66%
11,"CC(=O)N1CCC(NC(=O)c2cc(-c3ccc(O)cc3)nc3[nH]nc(C)c23)CC1 [Example 277, 6-(4-Hydroxy-phenyl)-3-methyl-1H-pyrazolo[3,4-b]pyridine-4-carboxylic acid (1-acetyl-piperidin-4-yl)-amide]",35%
12,"Cc1n[nH]c2nc(-c3ccc(O)cc3)cc(C(=O)NC3CCN(C4CCCCC4)CC3)c12 [Example 279, 6-(4-Hydroxy-phenyl)-3-methyl-1H-pyrazolo[3,4-b]pyridine-4-carboxylic acid (1-cyclohexyl-piperidin-4-yl)-amide]",78%
13,"Cc1n[nH]c2nc(-c3ccc(O)cc3)cc(C(=O)N3CCC(CN4CCCCC4)CC3)c12 [Example 287, [6-(4-Hydroxy-phenyl)-3-methyl-1H-pyrazolo[3,4-b]pyridin-4-yl]-(4-piperidin-1-ylmethyl-piperidin-1-yl)-methanone]",34%
14,"Cc1n[nH]c2nc(-c3ccc(O)c(F)c3)cc(C(=O)N3CC[C@H](N)C3)c12 [Example 292, ((S)-3-Amino-pyrrolidin-1-yl)-[6-(3-fluoro-4-hydroxy-phenyl)-3-methyl-1H-pyrazolo[3,4-b]pyridin-4-yl]-methanone]",77%

# Other lines, results leading:
row,inhibition at 1.14 µM,SMILES
1,87%,"Cc1n[nH]c2nc(-c3ccc(O)cc3)cc(C(=O)N3CCCN(C)CC3)c12 [Example 269, [6-(4-Hydroxy-phenyl)-3-methyl-1H-pyrazolo[3,4-b]pyridin-4-yl]-(4-methyl-[1,4]diazepan-1-yl)-methanone]"
2,87%,"Cc1n[nH]c2nc(-c3ccc(O)cc3)cc(C(=O)NCC(C)(C)CN)c12 [Example 270, 6-(4-Hydroxy-phenyl)-3-methyl-1H-pyrazolo[3,4-b]pyridine-4-carboxylic acid (3-amino-2,2-dimethyl-propyl)-amide]"
3,85%,"Cc1n[nH]c2nc(-c3ccc(O)cc3)cc(C(=O)N(C)C3CCN(C)CC3)c12 [Example 272, 6-(4-Hydroxy-phenyl)-3-methyl-1H-pyrazolo[3,4-b]pyridine-4-carboxylic acid methyl-(1-methyl-piperidin-4-yl)-amide]"
4,89%,"Cc1n[nH]c2nc(-c3ccc(O)cc3)cc(C(=O)NC3CCCN(C)C3)c12 (centres unmarked) [Example 275, 6-(4-Hydroxy-phenyl)-3-methyl-1H-pyrazolo[3,4-b]pyridine-4-carboxylic acid (1-methyl-piperidin-3-yl)-amide]"
5,68%,"Cc1n[nH]c2nc(-c3ccc(O)cc3)cc(C(=O)NCC3CCC(=O)N3)c12 (centres unmarked) [Example 278, 6-(4-Hydroxy-phenyl)-3-methyl-1H-pyrazolo[3,4-b]pyridine-4-carboxylic acid (5-oxo-pyrrolidin-2-ylmethyl)-amide]"
6,88%,"Cc1n[nH]c2nc(-c3ccc(O)cc3)cc(C(=O)N3CCN(C(=O)C4CCCO4)CC3)c12 (centres unmarked) [Example 280, [6-(4-Hydroxy-phenyl)-3-methyl-1H-pyrazolo[3,4-b]pyridin-4-yl]-[4-(tetrahydro-furan-2-carbonyl)-piperazin-1-yl]-methanone]"
7,85%,"CCN1CCCN(C(=O)c2cc(-c3ccc(O)cc3)nc3[nH]nc(C)c23)CC1 [Example 281, (4-Ethyl-[1,4]diazepan-1-yl)-[6-(4-hydroxy-phenyl)-3-methyl-1H-pyrazolo[3,4-b]pyridin-4-yl]-methanone]"
8,73%,"Cc1n[nH]c2nc(-c3ccc(O)cc3)cc(C(=O)N3CC4CCCN4CC3c3ccccc3)c12 (centres unmarked) [Example 282, [6-(4-Hydroxy-phenyl)-3-methyl-1H-pyrazolo[3,4-b]pyridin-4-yl]-(3-phenyl-hexahydro-pyrrolo[1,2-a]pyrazin-2-yl)-methanone]"
9,45%,"COC(=O)C1(N)CCN(C(=O)c2cc(-c3ccc(O)cc3)nc3[nH]nc(C)c23)CC1 [Example 283, 4-Amino-1-[6-(4-hydroxy-phenyl)-3-methyl-1H-pyrazolo[3,4-b]pyridine-4-carbonyl]-piperidine-4-carboxylic acid methyl ester]"
10,66%,"Cc1n[nH]c2nc(-c3ccc(O)cc3)cc(C(=O)N3CC4CCCN4CC3C)c12 (centres unmarked) [Example 284, [6-(4-Hydroxy-phenyl)-3-methyl-1H-pyrazolo[3,4-b]pyridin-4-yl]-(3-methyl-hexahydro-pyrrolo[1,2-a]pyrazin-2-yl)-methanone]"
11,76%,"Cc1n[nH]c2nc(-c3ccc(O)cc3)cc(C(=O)N3CC4CCCCN4CC3C)c12 (centres unmarked) [Example 285, [6-(4-Hydroxy-phenyl)-3-methyl-1H-pyrazolo[3,4-b]pyridin-4-yl]-(3-methyl-octahydro-pyrido[1,2-a]pyrazin-2-yl)-methanone]"
12,62%,"Cc1n[nH]c2nc(-c3ccc(O)cc3)cc(C(=O)NCC(C)(CN3CCCC3)c3ccccn3)c12 (centres unmarked) [Example 286, 6-(4-Hydroxy-phenyl)-3-methyl-1H-pyrazolo[3,4-b]pyridine-4-carboxylic acid (2-methyl-2-pyridin-2-yl-3-pyrrolidin-1-yl-propyl)-amide]"
13,59%,"Cc1n[nH]c2nc(-c3ccc(O)c(F)c3)cc(C(=O)NC3CC4(CC(N)C4)C3)c12 (centres unmarked) [Example 288, 6-(3-Fluoro-4-hydroxy-phenyl)-3-methyl-1H-pyrazolo[3,4-b]pyridine-4-carboxylic acid (6-amino-spiro[3.3]hept-2-yl)-amide]"
14,84%,"Cc1n[nH]c2nc(-c3ccc(O)c(F)c3)cc(C(=O)N3CC4CNCC4C3)c12 (centres unmarked) [Example 289, [6-(3-Fluoro-4-hydroxy-phenyl)-3-methyl-1H-pyrazolo[3,4-b]pyridin-4-yl]-(hexahydro-pyrrolo[3,4-c]pyrrol-2-yl)-methanone]"
15,96%,"Cc1n[nH]c2nc(-c3ccc(O)c(F)c3)cc(C(=O)N3CCN[C@@H](C)C3)c12 [Example 290, [6-(3-Fluoro-4-hydroxy-phenyl)-3-methyl-1H-pyrazolo[3,4-b]pyridin-4-yl]-((S)-3-methyl-piperazin-1-yl)-methanone]"
16,89%,"CCC[C@@H]1CN(C(=O)c2cc(-c3ccc(O)c(F)c3)nc3[nH]nc(C)c23)CCN1 [Example 291, [6-(3-Fluoro-4-hydroxy-phenyl)-3-methyl-1H-pyrazolo[3,4-b]pyridin-4-yl]-((R)-3-propyl-piperazin-1-yl)-methanone]"
17,89%,"CCC[C@H]1CN(C(=O)c2cc(-c3ccc(O)c(F)c3)nc3[nH]nc(C)c23)CCN1 [Example 293, [6-(3-Fluoro-4-hydroxy-phenyl)-3-methyl-1H-pyrazolo[3,4-b]pyridin-4-yl]-((S)-3-propyl-piperazin-1-yl)-methanone]"
18,85%,"CCCC[C@H]1CN(C(=O)c2cc(-c3ccc(O)c(F)c3)nc3[nH]nc(C)c23)CCN1 [Example 294, ((S)-3-Butyl-piperazin-1-yl)-[6-(3-fluoro-4-hydroxy-phenyl)-3-methyl-1H-pyrazolo[3,4-b]pyridin-4-yl]-methanone]"
